Source: patent publication EP0300073A1 (priority 1987, dated 1989)

Columns and labels:
[1] = system: HIV prototype isolate CBL-1; assay: in vitro test for anti-HIV activity: prevention of infection of a CD4 positive cell line; format: cell-based; conditions: Human immunodeficiency virus 1, read-out: concentration able to inhibit the HIV prototype isolate CBL-1 from infecting the CD4 positive cell line
From the text: (§1) In the in vitro test for anti-HIV activity, a CD4 positive cell line was used.

RF = assay: as above; format: cell-based; conditions: Human immunodeficiency virus 1, isolate RF, read-out: concentration required to prevent infection of the CD4 positive cell line
From the text: as §1

AIDS = assay: clinical use in AIDS patients (case history, fusidic acid added to the therapeutic regimen); format: in vivo, human
Description: Since it is known that fusidic acid can penetrate phagocytic cells and kill intracellular bacteria, fusidic acid was administered to AIDS patients with opportunistic infections in the hope that it might assist other antibiotics in combatting these infections. […] The present invention is based on this unexpected finding.
The patient, a person with a past history of hepatitis (HBsAG positive) and recurrent seborrhoic dermatitis was well until 1984 when they consulted a physician since they were suffering from lethargy, fever and weight loss. […] They remained stable with no further deterioration until 1986 when they suffered further weight loss and diarrhoea. […] Mycobacterium hominis was grown from both the stool and the blood following the detection of acid fast bacilli in a lymph node biopsy. The patient was given isoniazid, ethambutol and rifampicin as well as antiparasitic and local antifungal therapy. After six weeks of treatment there was no improvement with respect to their symptoms and they continued to lose weight (16 kg since admission). […] (orally) was added to their regimen. Two weeks following commencement they became afebrile, began to put on weight and was able to undergo a transurethral prostectomy, following which they returned to work and has been well since. Two months later they had increased their weight by 10 kg.

gram negative bacilli = conditions: cited from earlier work
fungi = conditions: cited from earlier work
Coxsackie virus A21 = conditions: cited from earlier work
rhinovirus = conditions: cited from earlier work

CC(=O)O[C@H]1C[C@@]2(C)[C@@H](C[C@@H](O)[C@H]3[C@@]4(C)CC[C@@H](O)[C@@H](C)[C@@H]4CC[C@@]32C)/C1=C(\CCC=C(C)C)C(=O)O [fusidic acid]
minimal effective concentration [1]: 50 µg/mL
minimal effective concentration (RF): 100 µg/mL
general condition of AIDS patients (AIDS; AIDS patients with opportunistic infections, added to the therapeutic regimen): remarkable improvement
fever status (AIDS; one AIDS patient, 500 mg t.d.s. orally added to isoniazid, ethambutol, rifampicin, antiparasitic and antifungal therapy, two weeks following commencement): afebrile
weight increase (AIDS; one AIDS patient, 500 mg t.d.s. orally added to regimen, two months later): 10 kg
activity against gram negative bacilli (gram negative bacilli): weak activity
activity against fungi (fungi): weak activity
in vitro antiviral effect against Coxsackie virus A21 (Coxsackie virus A21): some in vitro antiviral effect
in vitro antiviral effect against rhinovirus (rhinovirus): some in vitro antiviral effect
